Source: patent US11279708B2, “Amidino- and amino-rocaglates as novel translation inhibitors and anticancer agents” (priority 2019, dated 2022)

Legend:
[1] = tested on: eIF4A-dependent translation; assay: in vitro translation assay, bicistronic FF/HCV/Ren reporter mRNA in Krebs-2 extracts; assay type: biochemical; conditions: screen at 2 μM compound
Description: Structure-Activity Relationships. With a number of amidino-rocaglates and amino-rocaglates in hand, we evaluated their inhibition of eIF4A-dependent translation using an in vitro assay as depicted in FIG. 14, where a bicistronic reporter mRNA was designed for translation in Krebs-2 extracts. In FIG. 14 the following description applies (a) IC50 was determined from fitted sigmoid curves; […] indicates the concentration of compound that inhibits cap-dependent translation by 50%, which was normalized by cap-independent translation. For its determination, the bicistronic reporter FF/HCV/Ren mRNA was used to produce Firefly luciferase (cap-dependent) and Renilla luciferase (cap-independent) in Krebs-2 extracts in the presence of indicated compounds at various concentrations. In particular, translation of Firefly luciferase (FF) is cap-dependent and depends on eIF4A activity; in contrast, translation of Renilla luciferase (REN) utilizes the HCV internal ribosome entry site (IRES) which functions independently of eIF4A. IC50's were determined by the inhibition of FF relative to REN obtained in the presence of compound relative to vehicle controls and normalized to REN as an internal control. […] In accordance with the eIF4A-RNA-rocaglamide (2) co-crystallographic analysis (FIG. 4), the amide carbonyl of 2 interacts with Gln195 of eIF4A as a H-bond acceptor, while the tertiary hydroxyl of 2 serves as a H-bond donor to an RNA base. […] To further verify the hypothesis, amidino-rocaglates (pKa of N—H˜26.7-30.7 in DMSO, strong H-bond donors) and amino-rocaglates (pKa of N—H˜36 to 44 in DMSO, weak H-bond donors) were next evaluated. […] Conversely, benzyl amidine 9e had IC50=60 nM, whereas the methylene tether may allow conformational adjustment to avoid rigid repulsion in the binding pocket.
The rocaglate collection was also tested in in vitro translation assays using cell-free extracts with a previously described bicistronic mRNA containing the HCV IRES, which is not dependent on eIF4A activity and served as an internal control (FIG. 19C).
In Vitro Translation Assays. In vitro translation assays performed in Krebs-2 cell extracts were supplemented with 5 mM MgCl2, 30 mM Tris-HCl (pH 7.5), 1.5 mM ATP, 0.1 mM GTP, 0.6 mM CTP, 10 mM dipotassium creatine phosphate, 80 μg/mL creatine kinase, and 0.04 mM amino acids. The specified mRNA reporters were added to each reaction at a final concentration of 10 ng/μL. The translation reactions were incubated with or without compound for 60 minutes at 30° C. prior to the measurement of luciferase activities.
FIGS. 19A-19C. Rocaglate activity profiling. 19A. Assessing eIF4A1:poly r(AG)8 (SEQ ID NO: 2) RNA binding by FP in the presence of 10 μM rocaglate. Values are expressed relative to vehicle controls and data is rank ordered. n=3±SD. 19B. The change in polarization obtained with eIF4A1:poly r(AG)8 (SEQ ID NO: 2) and eIF4A2:poly r(AG)8 (SEQ ID NO: 2) RNA. Pearson r=0.814; p<0.0001. 19C. Inhibition of cap-dependent translation by rocaglates was measured using the indicated mRNA bicistronic reporter (4 ng/ul) in Krebs-2 extracts at a final compound concentration of 2 μM. n=3±SD.
FIG. 35A-35E are plots showing dose-response curve of FF-HCV-Ren mRNA translation in Krebs extracts with IC50s shown for inhibition of cap-dependent protein synthesis. Values are plotted relative to DMSO controls. n=2 technical replicates performed in duplicate.

[2] = tested on: NIH/3T3 cells; assay: Sulforhodamine B (SRB) cytotoxicity assay; assay type: cell-based; conditions: 40 nM, 4 days
Description: In cellula activity of rocaglates. All compounds in the rocaglate collection were assessed for cytotoxic activity towards NIH/3T3 cells as well as the rocaglate-resistant line, eIF4A^em1JP, which harbors an F163L mutation in eIF4A1. This mutation was originally identified following selection for RocA-resistant yeast mutants and F163 was subsequently shown to be critical for stacking with ring C of RocA (2) (FIG. 4). Although eIF4A2 is also a target of rocaglates, eIF4A1 F163L is sufficient to confer resistance to rocaglate-induced translation inhibition and cytotoxicity, likely due to eIF4A1 being the more abundant isoform in NIH/3T3 cells (250-fold higher). […] Lastly, although effective at inhibiting cap-dependent translation in vitro, WGD-57-591 (no activity @ 40 nM) and WGD-57-590 (12% growth inhibition @ 40 nM) performed poorly in this assay.
Sulforhodamine B (SRB) assay. NIH/3T3 cells were seeded at a density of 1000 cells/well in a 96 well format and incubated in presence of each 40 nM compound. After 4 days of culture, cells were washed with PBS, fixed with 50% trichloroacetic (TCA) acid for 1 hour, and then stained with 0.5% sulforhodamine B in 1% acetic acid for 15 min. Plates were then washed 5 times with 1% acetic acid, dried, and the stained wells were resuspended with 10 mM Tris (pH 9) prior to measuring the absorbance at 510 nm using (Spectramax M5, Molecular Devices)
FIGS. 26A-26B. In cellula activity of rocaglates. 26A. Cytotoxicity of rocaglates towards NIH/3T3 (grey circle) and the NIH/3T3 rocaglate-resistant line, eIF4A^em1JP(redtriangle). Cells were exposed to 40 nM compound for 4 days and viability was measured using the SRB assay. n=3±SD. 26B. Rocaglates show different sequence preferences for inhibiting cap-dependent translation in cellula. HEK 293 cells were transfected with 0.5 μg of in vitro synthesized capped (AG)10-FF/HCV/Ren or (UC)10-FF/HCV/Ren mRNA and 1h later exposed to the indicated concentrations of compounds for an additional 6 h, at which time extracts were prepared and luciferase activity measured. n=3 SD.

[3] = tested on: MDA-MB-231 breast cancer cells; assay: SRB cell viability assay; assay type: cell-based; conditions: MDA-MB-231, SRB assay; read-out: IC50, cytotoxicity
Source text: Translation Inhibition by Amidino-Rocaglates Induces Cytotoxicity. We next evaluated amidino-rocaglates in an SRB cell viability assay using MDA-MB-231 breast cancer cells for cellular readout of translation inhibition (FIG. 16). In particular, (−)-9b, (−)-9aa, and (+)-9aa were compared with rocaglate hydroxamate (−)-23. […] The inspiring high-potency of amidino-rocaglates underscores their utility as promising agents for anticancer treatment combined with the appropriate formulation and drug-delivery strategies. […] Meanwhile, amide carbonyls of 9z and 9aa served as H-bond acceptors likely improving interactions with Gln195 of eIF4A, although this awaits structural confirmation. […] Our studies further illustrate the power of chemical synthesis enabling structural and biological improvement of complex natural products using targeted modifications. Additional biological studies of amidino-, amino-rocaglates, and related compounds including RNA binding studies are currently in progress and will be reported in due course.

SMILES	inhibition of cap-dependent translation in vitro (in words) [1]	rank among the top 15 cytotoxic rocaglates [2]	IC50 [3]
COC(=O)[C@@H]1[C@@H](c2ccccc2)[C@]2(c3ccc(OC)cc3)Oc3cc(OC)cc(OC)c3[C@@]23NC(C2CC2)=N[C@@]13O [9n]	comparable potency to SDS-1-021	15th	–
COC(=O)[C@@H]1[C@@H](c2ccccc2)[C@]2(c3ccc(OC)cc3)Oc3cc(OC)cc(OC)c3[C@@]23N=C(C)N[C@@]13O [(−)-9b]	–	–	3.5 nM
